We go through 17 compounds from ChEMBL document CHEMBL3880416, “Inhibitors of AKT Activity” (2011).

By IC50 is commonly meant the point on the concentration scale where inhibition reaches its midpoint.

Bounds are passed on as bounds.

For assay [1], the target named is RAC-alpha serine/threonine-protein kinase (Homo sapiens, UniProt P31749). Description: Inhibition of full length human AKT1 expressed in Sf9 cells assessed as reduction in substrate phosphorylation using biotin-ahx-ARKRERAYSFGHHA-amide substrate and [gamma-33P]ATP incubated for 40 mins by top count microplate scintillation counting method.
RAC-alpha serine/threonine-protein kinase, sequence (P31749 whole entry): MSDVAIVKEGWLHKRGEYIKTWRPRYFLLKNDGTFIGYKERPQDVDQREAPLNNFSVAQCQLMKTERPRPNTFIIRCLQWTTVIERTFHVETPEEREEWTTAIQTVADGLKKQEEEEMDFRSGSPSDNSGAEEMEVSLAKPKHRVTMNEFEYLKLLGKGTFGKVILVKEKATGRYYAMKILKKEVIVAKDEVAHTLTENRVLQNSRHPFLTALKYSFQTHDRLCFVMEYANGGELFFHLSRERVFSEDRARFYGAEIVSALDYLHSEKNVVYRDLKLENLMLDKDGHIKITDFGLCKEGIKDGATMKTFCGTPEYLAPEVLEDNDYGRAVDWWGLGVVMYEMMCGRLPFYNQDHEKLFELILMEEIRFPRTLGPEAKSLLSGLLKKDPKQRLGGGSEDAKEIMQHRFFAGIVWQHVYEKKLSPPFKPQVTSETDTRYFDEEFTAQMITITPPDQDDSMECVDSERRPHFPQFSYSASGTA
For assay [2], the target named is RAC-gamma serine/threonine-protein kinase (Homo sapiens, UniProt Q9Y243). Description: Inhibition of full length human AKT3 expressed in Sf9 cells assessed as reduction in substrate phosphorylation using biotin-ahx-ARKRERAYSFGHHA-amide substrate and [gamma-33P]ATP incubated for 40 mins by top count microplate scintillation counting method.
RAC-gamma serine/threonine-protein kinase, sequence (Q9Y243 whole entry): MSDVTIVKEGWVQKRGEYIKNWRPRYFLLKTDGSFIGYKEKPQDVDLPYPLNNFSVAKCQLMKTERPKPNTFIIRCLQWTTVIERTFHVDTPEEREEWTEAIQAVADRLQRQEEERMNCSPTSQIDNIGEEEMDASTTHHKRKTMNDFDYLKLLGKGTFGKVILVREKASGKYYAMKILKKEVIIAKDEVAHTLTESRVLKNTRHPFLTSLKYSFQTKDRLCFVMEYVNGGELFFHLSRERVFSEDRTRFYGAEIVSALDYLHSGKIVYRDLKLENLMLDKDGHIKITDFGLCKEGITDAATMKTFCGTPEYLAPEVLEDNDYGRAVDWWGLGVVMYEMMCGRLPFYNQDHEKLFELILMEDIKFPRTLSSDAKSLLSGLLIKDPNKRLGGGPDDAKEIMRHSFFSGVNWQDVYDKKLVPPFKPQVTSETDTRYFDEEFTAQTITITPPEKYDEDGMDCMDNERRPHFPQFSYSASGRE

For `Cn1ncc(Br)c1-c1cc(C(=O)N[C@H](CN)Cc2ccccc2C(F)(F)F)sc1Cl`, the IC50 in assay [1] is not above 2.51 nM.

Regarding `Cn1ncc(Cl)c1-c1cc(C(=O)N[C@H](CN)Cc2ccccc2C(F)(F)F)sc1Cl`, in assay [1], the IC50 was not above 2.51 nM.

For `CCn1ncc(Cl)c1-c1cc(C(=O)N[C@H](CN)Cc2ccc(F)c(F)c2)oc1Cl`, the IC50 in assay [1] was not above 2.51 nM.

Regarding `Cn1ncc(Cl)c1-c1cc(C(=O)N[C@H](CN)Cc2ccccc2C(F)(F)F)oc1Cl`, the IC50 in assay [1] was not above 2.51 nM.

For the compound `Cn1ncc(Br)c1-c1cc(C(=O)N[C@H](CN)Cc2ccc(F)cc2)sc1Cl`, the IC50 in assay [1] is not above 2.51 nM.

`CCc1sc(C(=O)N[C@H](CN)Cc2cccc(F)c2)cc1-c1c(Cl)cnn1C`: in assay [1], the IC50 is not above 2.51 nM.

As for `Cn1ncc(Br)c1-c1cc(C(=O)N[C@H](CN)Cc2cccc(C(F)(F)F)c2)sc1Cl`, the half-inhibitory concentration (IC50) in assay [1] was not above 2.51 nM.

For the compound `Cn1ncc(Br)c1-c1cc(C(=O)N[C@H](CN)Cc2cccc(F)c2)sc1Cl`, the half-inhibitory concentration (IC50) in assay [1] was not above 2.51 nM.

`Cn1nccc1-c1cc(C(=O)N[C@H](CN)Cc2ccc(F)c(F)c2)oc1Cl`: the IC50 in assay [1] is not above 2.51 nM.

Regarding `CCn1ncc(Cl)c1-c1cc(C(=O)N[C@H](CN)Cc2ccc(F)cc2)sc1Cl`, the IC50 in assay [1] was not above 2.51 nM.

In the case of `Cc1cnn(C)c1-c1cc(C(=O)N[C@H](CN)Cc2cccc(F)c2)sc1Cl`, in assay [1], the IC50 is not above 2.51 nM.

Take `Cn1nccc1-c1cc(C(=O)N[C@H](CN)Cc2cccc(F)c2)sc1Cl`: the IC50 in assay [1] is not above 2.51 nM.

With `Cc1cnn(C)c1-c1cc(C(=O)N[C@H](CN)Cc2ccccc2C(F)(F)F)sc1Cl`, the IC50 in assay [1] is not above 2.51 nM.

Regarding `Cn1ncc(Cl)c1-c1cc(C(=O)N[C@H](CN)Cc2ccc(F)c(F)c2)sc1Cl`, the concentration for half-maximal inhibition (IC50) in assay [2] is 3.16 to 25.1 nM; in assay [1], 1.58 to 2.51 nM.

For the compound `COc1sc(C(=O)N[C@H](CN)Cc2cccc(F)c2)cc1-c1c(Cl)cnn1C`, the IC50 in assay [1] was not above 2.51 nM.

`Cc1cnn(C)c1-c1cc(C(=O)N[C@H](CN)Cc2cccc(F)c2)oc1Cl`: in assay [1], the IC50 is not above 2.51 nM.

`CCn1ncc(Cl)c1-c1cc(C(=O)N[C@H](CN)Cc2ccc(F)c(F)c2)sc1Cl`: the IC50 in assay [1] was not above 2.51 nM.
